Results as given in patent EP0377044B1, “PROTECTIVE AGENT FOR RADIATION HAZARD” (MITSUI TOATSU CHEMICALS, Inc., priority 1988, dated 1989).
Square brackets hold non-standard residues; d marks the D form. Peptide text beside a SMILES is read from it. pGlu = O=C1CC[C@@H](C(=O)O)N1

What was measured:
[1] = system: mice were subjected to 600R X-radiation / 400R X-radiation; test: Blood test in X-irradiated mice (600R and 400R); format: in vivo; conditions: for Blood parameters HCT / Blood parameters HGB / Blood parameters PLT / Blood parameters RBC / Blood parameters RET / Blood parameters WBC: pre-administration with 100 µg; for Blood parameters HCT: hematocrit value; for Blood parameters HGB: hemoglobin; for Blood parameters PLT: number of blood platelet; for Blood parameters RBC: number of red blood cells; for Blood parameters RET: number of reticulocytes; for Blood parameters WBC: number of white blood cells
Protocol: Independently of the irraditation carried out in Experimental Example 3 with mice for life/death observation, mice were subjected to 600R X-radiation to conduct a blood test on a dayly basis. Another group of mice was prepared and subjected to 400R X-radiation. Each of the 600R- and 400R-irradiated groups was further divided into two, one `group being for pre-administration with 100 µg of the above mentioned medicament and the other group serving as a control. Samples of blood were taken every day from each mouse and tested for the number white blood cells (WBC), that of red blood cells (RBC), that of reticulocytes (RET), that of blood platelet (PLT), that of hemoglobin (HGB) and hematocrit value (HCT).

[2] = system: mice irradiated with 900R X-rays; test: Survival of mice after whole body irradiation with 900R X-rays; format: in vivo
Protocol: Male, 10 week-old C3H/He mice were used and groups of 10 - 15 animals each were prepared.
The mice were subjected to whole body irradiation for 8 minutes using a X-radiation unit (manufactured by Shimazu Seisaku-sho, Shin-Ai 250 II). These animals received, once per day, subcutaneous administration of 100 µg of FTS·CH₃COOH·2H₂O as used in Example 1 for consecutive 14 days. For a pre-administered group, the administration started two days before the irradiation. For a post-administered group, the first administration was effected immediately after the irradiation. As control groups, one group which received only once subcutaneous administration of 1 KE of Picibanil immediately after the irradiation and another group which received every day administration of physiological saline were prepared.
In the same manner as in Experimental Example 1, mice were subcutaneously administered, after X-radiation for 9 minutes, with 100 µg/day of FTS·CH₃COOH·2H₂O, once a day and twelve times in all, i.e. on the zero, 1st, 2nd, 3rd, 4th, 5th, 7th, 8th, 9th, 10th, 11th and 12th days.

With `C[C@H](NC(=O)[C@@H]1CCC(=O)N1)C(=O)N[C@@H](CCCCN)C(=O)N[C@@H](CO)C(=O)N[C@@H](CCC(N)=O)C(=O)NCC(=O)NCC(=O)N[C@@H](CO)C(=O)N[C@@H](CC(N)=O)C(=O)O` [medicament, pGlu-Ala-Lys-Ser-Gln-Gly-Gly-Ser-Asn] ([pGlu]AKSQGGSN-OH) the “Blood parameters HCT” value ([1]; 400R X-rays, on the 14th day) was 29.8±1.4, the “Blood parameters HGB” value ([1]; 400R X-rays, on the 14th day) was 8.8±0.3 and the “Blood parameters PLT” value ([1]; 400R X-rays, on the 14th day) was 240.6±14.3. The “Blood parameters RBC” value ([1]; 400R X-rays, on the 14th day) was 522.7±21.7, the “Blood parameters RET” value ([1]; 400R X-rays, on the 14th day) was 30.0±6.5 and the “Blood parameters WBC” value ([1]; 400R X-rays, on the 14th day) was 8.7±0.4. For the same compound, the “Blood parameters HCT” value ([1]; 600R X-rays, on the 7th day) was 39.1±5.5, the “Blood parameters HGB” value ([1]; 600R X-rays, on the 7th day) was 12.3±1.9 and the “Blood parameters PLT” value ([1]; 600R X-rays, on the 7th day) was 372.0±174.7. The “Blood parameters RBC” value ([1]; 600R X-rays, on the 7th day) was 691.8±96.1, the “Blood parameters RET” value ([1]; 600R X-rays, on the 7th day) was 24.6±10.9 and the “Blood parameters WBC” value ([1]; 600R X-rays, on the 7th day) was 34.2±25.2. For the same compound, the “blood parameters (WBC, RBC, RET, PLT, HGB, HCT)” value ([1]; 600R or 400R X-radiation, pre-administration 100 µg, compared with control group, summary of Table 4) was “apparently improved”, the “The number of days and survivals after X-radiation 9 (days)” value ([2]; 900R X-rays, post-administration 100 µg/day s.c., twelve times in all (days 0-5, 7-12), day 9, 15 animals used) was 15 and the “The number of days and survivals after X-radiation 10 (days)” value ([2]; 900R X-rays, post-administration 100 µg/day s.c., twelve times in all (days 0-5, 7-12), day 10, 15 animals used) was 13. The “The number of days and survivals after X-radiation 11 (days)” value ([2]; 900R X-rays, post-administration 100 µg/day s.c., twelve times in all (days 0-5, 7-12), day 11, 15 animals used) was 12, the “The number of days and survivals after X-radiation 12 (days)” value ([2]; 900R X-rays, post-administration 100 µg/day s.c., twelve times in all (days 0-5, 7-12), day 12, 15 animals used) was 12 and the “The number of days and survivals after X-radiation 13 (days)” value ([2]; 900R X-rays, post-administration 100 µg/day s.c., twelve times in all (days 0-5, 7-12), day 13, 15 animals used) was 7. For the same compound, the “The number of days and survivals after X-radiation 14 (days)” value ([2]; 900R X-rays, post-administration 100 µg/day s.c., twelve times in all (days 0-5, 7-12), day 14, 15 animals used) was 4, the “The number of days and survivals after X-radiation 15 (days)” value ([2]; 900R X-rays, post-administration 100 µg/day s.c., twelve times in all (days 0-5, 7-12), day 15, 15 animals used) was 3 and the “The number of days and survivals after X-radiation 16 (days)” value ([2]; 900R X-rays, post-administration 100 µg/day s.c., twelve times in all (days 0-5, 7-12), day 16, 15 animals used) was 2. For the same compound, the “The number of days and survivals after X-radiation 18 (days)” value ([2]; 900R X-rays, post-administration 100 µg/day s.c., twelve times in all (days 0-5, 7-12), day 18, 15 animals used) was 2, the “The number of days and survivals after X-radiation 20 (days)” value ([2]; 900R X-rays, post-administration 100 µg/day s.c., twelve times in all (days 0-5, 7-12), day 20, 15 animals used) was 2 and the “The number of days and survivals after X-radiation 21 (days)” value ([2]; 900R X-rays, post-administration 100 µg/day s.c., twelve times in all (days 0-5, 7-12), day 21, 15 animals used) was 1. For the same compound, the “The number of days and survivals after X-radiation 23 (days)” value ([2]; 900R X-rays, post-administration 100 µg/day s.c., twelve times in all (days 0-5, 7-12), day 23, 15 animals used) was 0 and the life span extension ([2]; 900R, 100 µg/day s.c. twelve times after X-radiation, summary of Table 2) was “exhibited a life span extension”.
